# In patent US10894772B2, “Flavor modulator having pyridine derivative or salt thereof as active ingredient” (T. HASEGAWA CO., LTD., priority 2015, dated 2021):
# Assays:
# Type in all cases: in vivo
# [1] = tested on: panelists; experiment: Confirmation of umami in water (point score); conditions: average point of 10 panelists, 0 no difference from control (water), 1 somewhat stronger, 2 stronger, 3 considerably stronger, 4 poor taste balance
# Protocol: As a comparative product, a solution was prepared by dissolving the comparative product 1 (2-(2-benzyloxyethyl)pyridine) to have the same concentration. Water with no addition was prepared as a control product. Well-trained 10 panelists tasted the solutions prepared by dissolving any the invention products 1 to 6 and the comparative product 1 for organoleptic evaluation of umami.
# Umami evaluation was based on the control product of water.
# [2] = tested on: panelists; experiment: Confirmation of umami imparting and saltiness enhancing effect in 0.3 mass % sodium chloride (point score); conditions: average point of 10 panelists vs control, 0 no change, 1 slightly higher, 2 higher, 3 considerably higher, 4 extremely higher umami and saltiness, 5 bitter as lacking balance
# Protocol: An aqueous 0.3 mass % sodium chloride solution (control), and solutions of the invention products 1 to 6 each dissolved in a 0.3 mass % sodium chloride solution to have the concentration shown in Table 5 were prepared. As a comparative product, a solution was prepared by dissolving the comparative product 1 in 0.3 mass % sodium chloride. Well-trained 10 panelists tasted the solutions for organoleptic evaluation of umami impartment and saltiness enhancement.
# Umami and saltiness scores are as follows, based on the aqueous 0.3 mass % sodium chloride solution as a control. Each sample was given any of a point 0, no change from control; 1, slightly higher umami and saltiness than control; 2, higher umami and saltiness than control; 3, considerably higher umami and saltiness than control; 4, extremely higher umami and saltiness than control; and 5, bitter as lacking balance of umami and saltiness.
# [3] = tested on: panelists; experiment: Confirmation of umami in water (organoleptic evaluation of taste and flavor in words); conditions: average of 5 panelists
# Protocol: A solution was prepared by dissolving 2-(3-benzyloxypropyl)pyridine (invention product 101) in water to have a concentration shown in Table 15. As a comparative product, a solution was prepared by dissolving 2-(2-benzyloxyethyl)pyridine (comparative product 1 prepared in Comparative Example 1) to have the same concentration. Well-trained 5 panelists tasted the solutions and non-added water for organoleptic evaluation of taste and flavor.
# The invention product 101 and the comparative product 1 were individually diluted with ethanol to have a proper concentration, and then further diluted with water to prepare an aqueous solution of 2-(3-benzyloxypropyl)pyridine (invention product 101 produced in Example 101) and that of 2-(2-benzyloxyethyl)pyridine (comparative product synthesized in Comparative Example 1) each having a concentration shown in the following Table 21. Well-trained panelists tasted the solution having a different concentration and non-added water for organoleptic evaluation in point of taste and flavor. […]
# [4] = tested on: panelists; experiment: Confirmation of umami imparting and saltiness enhancing effect in 0.3 mass % sodium chloride (evaluation in words); conditions: average of 5 panelists, Example 108
# Protocol: An aqueous 0.3 mass % sodium chloride solution (control), and solutions of 2-(3-benzyloxypropyl)pyridine dissolved in a 0.3 mass % sodium chloride solution to have the concentration shown in Table 17 were prepared. As comparative products, an aqueous 0.3 mass % sodium chloride solution (control), and a solution of a comparative product, 2-(2-benzyloxyethyl)pyridine dissolved in a 0.3 mass % sodium chloride solution to have the same concentration were prepared. Well-trained 5 panelists tasted the solutions for organoleptic evaluation of umami impartment and saltiness enhancement.
# An aqueous 0.3 mass % sodium chloride solution (control), and solutions of the invention product 201 or the reference product 202 dissolved in a 0.3 mass % sodium chloride solution to have the concentration as 2-(3-benzyloxypropyl)pyridine therein shown in the following Table 23 were prepared. Well-trained 5 panelists tasted the solutions for organoleptic evaluation of umami impartment and saltiness enhancement.
smiles,measurement,setting,value
"c1ccc(COCCc2ccccn2)cc1 [comparative product 1, 2-(2-benzyloxyethyl)pyridine, reference compound]",umami (average point),[1]; 0.1 ppm in water,0.8
same,umami (average point),[1]; 1 ppm in water,1.5
same,umami (average point),[1]; 2 ppb in water,0.0
same,umami (average point),[1]; 10 ppb in water,0.1
same,umami (average point),[1]; 20 ppm in water,2.2
same,umami (average point),[1]; 200 ppm in water,2.8
same,umami (average point),[1]; 500 ppm in water,3.3
same,umami (average point),[1]; 2000 ppm in water,3.8
same,umami and saltiness (average point),[2]; 0.05 ppb in aqueous 0.3 mass % sodium chloride solution,0.0
same,umami and saltiness (average point),[2]; 0.1 ppb in aqueous 0.3 mass % sodium chloride solution,0.0
same,umami and saltiness (average point),[2]; 0.1 ppm in aqueous 0.3 mass % sodium chloride solution,2.1
same,umami and saltiness (average point),[2]; 0.5 ppm in aqueous 0.3 mass % sodium chloride solution,3.0
same,umami and saltiness (average point),[2]; 1 ppb in aqueous 0.3 mass % sodium chloride solution,0.6
same,umami and saltiness (average point),[2]; 2 ppm in aqueous 0.3 mass % sodium chloride solution,3.4
same,umami and saltiness (average point),[2]; 10 ppb in aqueous 0.3 mass % sodium chloride solution,1.5
same,umami and saltiness (average point),[2]; 10 ppm in aqueous 0.3 mass % sodium chloride solution,4.2
same,umami and saltiness (average point),[2]; 50 ppm in aqueous 0.3 mass % sodium chloride solution,4.8
same,Organoleptic Evaluation Taste,"[3]; 0.1 ppm dissolved in water, Example 107",Slightly umami.
same,Organoleptic Evaluation Taste,"[3]; 0.1 ppm, diluted with ethanol, then with water, Reference Example 201",Slightly umami.
same,Organoleptic Evaluation Taste,"[3]; 1 ppm dissolved in water, Example 107",Weakly umami.
same,Organoleptic Evaluation Taste,"[3]; 1 ppm, diluted with ethanol, then with water, Reference Example 201",Weakly umami.
same,Organoleptic Evaluation Flavor,"[3]; 2 ppb dissolved in water, Example 107",Nothing at all.
same,Organoleptic Evaluation Flavor,"[3]; 2 ppb, diluted with ethanol, then with water, Reference Example 201",Nothing at all.
same,Organoleptic Evaluation Flavor,"[3]; 10 ppb dissolved in water, Example 107",Nothing at all.
same,Organoleptic Evaluation Flavor,"[3]; 10 ppb, diluted with ethanol, then with water, Reference Example 201",Nothing at all.
same,Organoleptic Evaluation Taste,"[3]; 200 ppm dissolved in water, Example 107",Strongly umami.
same,Organoleptic Evaluation Taste,"[3]; 200 ppm, diluted with ethanol, then with water, Reference Example 201",Strongly umami.
same,Organoleptic Evaluation (umami impartment and saltiness enhancement),[4]; 0.1 ppm in 0.3 mass % sodium chloride solution,Umami as compared with control.
same,Organoleptic Evaluation (umami impartment and saltiness enhancement),[4]; 10 ppb in 0.3 mass % sodium chloride solution,Slightly umami as compared with control.
